Laboratory results: PMC4995014, “Identification of ABC Transporter Interaction of a Novel Cyanoquinoline Radiotracer and Implications for Tumour Imaging by Positron Emission Tomography” (PLoS ONE, 2016)

Columns and labels:
3T3 cells = experiment: SRB cell viability assay in 3T3 cells; assay type: cell-based; conditions: Mus musculus, NIH3T3, 72 h
Experimental: Cell viability by the sulforhodamine B (SRB) assay was used to assess cell growth and cytotoxicity of test compounds [29]. Cells were seeded at densities of 3,500 to 5,000 cells per well in 96 well plates overnight and pre-treated for 1 h with ABC transporter modulators: 10 μM fumitremorgin C (FTC; in MCF7MX and MCF7 cells), or 0.3 μM of zosuquidar (in 3T3 and 3T3-MDR1). Cells were then treated with test compounds for 72 h, at 37°C. After drug treatment, cells were fixed by addition of 50% trichloroacetic acid (TCA), and the plates washed and dried to allow staining with 0.4% solution of sulforhodamine B (Sigma) in 1% acetic acid for 30 minutes. Excess dye was removed upon washing with 1% acetic acid. Plates were dried and bound protein was solubilised upon addition of 150 μL of 10 mM Tris base buffer. Absorbance was measured at 540 nm using Thermo Multiskan-Ex plate reader. Cell viability versus compound concentration curves were plotted as a percentage of control cells. The concentration of drug that gave 50% inhibition in cell growth (GI50) was extrapolated from these curves using the sigmoid curve fit with variable slope in Prism (GraphPad Prism version 5.01, GraphPad Software, San Diego California USA). Three to six replicate wells were used for each drug concentration and experiments were carried out on three separate occasions for each compound.

Caco2 transwell assay = assay type: in vitro ADME, human; conditions: human, Caco-2, with verapamil 10 mg/mL, pre-treatment for 1 h, pre-treatment with 10 mg/mL verapamil for 1 h; read-out: efflux ratio in the presence of verapamil
Experimental: The caco2 transwell assay was performed to assess permeability. Cells were seeded at a density of 60,000 cells per well in 24 well transwell plates (Millipore, Billerica, Massachutsetts, USA), and maintained in DMEM supplemented with […] glucose (20% FBS, 1% penicillin/streptomycin, 1% glutamine) for 21 days at 37°C in 5% CO2. After 21 days the cells differentiate into enterocytes and express all three MDR proteins, ABCB1 and ABCG2 at the apical side and ABCC1 on the basal side. On day 21, cells were washed three times with Hank's Balanced Salt Solution (HBSS) (Fisher scientific, Loughborough, UK) and the trans-epithelial electric resistance (TERR) was measured using an Epithelial Voltohmmeter (EVOM) (World Precision Instruments, Sarasota, USA); only transwells with TERR of 400 Ω/cm^2 or above were used for the experiment. Cells were treated either at the apical (n = 3) or basal (n = 3) side of the transwell by addition of 10 μM of cyanoquinoline compound or 50 μM vinblastine prepared in a volume of 400 μL HBSS (compound added to apical well) or 800 μL of HBSS (added to basal well). When transport inhibitors FTC (10 μM) or zosuquidar (0.3 μM) were used, they were added to both the apical and basal wells 1 h prior to drug treatment. After 1 h pre-treatment the medium was removed and cells were treated with the compounds prepared in HBSS containing FTC or Zosuquidar.
Plates were incubated in shaker incubator at 37°C and 60 rpm for 120 min. After incubation, 200 μL aliquots from the apical and the basal wells were collected and analysed using high performance liquid chromatography (HPLC). Samples were run on a Millipore Waters HPLC system which included a 717 plus autosampler and 2487 dual wavelength absorbance detector system. The stationary phase comprised of a Phenomenex Luna C18 reverse phase column (150 X 4.6 mm; 5 μm particle size). The mobile phase comprised water (0.1% TFA) and acetonitrile (0.1% TFA) (80:20 v/v) at a flow rate of 1 mL/min for all compounds except vinblastine. For vinblastine, the stationary phase comprised a Supelcosil LC-ABZ reverse phase column (5 × 4.6 mm; 5 μm particle size). The mobile phase comprised water (0.1% formic acid) and methanol (90:10 to 10:90 v/v gradient over 20 min). Peak areas corresponding to the compounds of interest were recorded. Using standard curves the areas under the curve were converted into concentrations of compound. The permeability coefficient (Papp) was calculated using the following equation [30]: Papp = (dQ/dt)/A C0, where A is the surface area of the transwell membrane in cm^2 (= 0.33 cm^2), C0 is the drug concentration in the donor chamber at time t = 0 and dQ/dt is the rate of transfer of the compound to the receiver chamber, determined from the slope of the graph concentration (dQ) versus time (dt). Papp values corresponding to absorption and secretion were assessed and used to calculate efflux ratio. Efflux ratio =(Papp B−A)/(Papp A−B) Where Papp A-B = Papp absorption and Papp B-A = Papp secretion.
The integrity of the caco2 cell membrane was assessed for each well following the experiment by addition of a 100 μM solution of […] (Sigma) in HBSS to the apical side of the plate. The plates were placed in the shaker incubator for 1 h at 37°C and 60 rpm. Samples from the basal wells were transferred into a 96 well plate and the levels of […] were assessed by measuring with an excitation of 450 nm and an emission of 540 nm using the PerkinElmer Wallac 1420 counter.

efflux ratio at 120 min, 10 μM (Caco2 transwell assay): 1.1
SMILES: CCOc1cc2ncc(C#N)c(Nc3ccc(F)c(Cl)c3)c2cc1NC(=O)/C=C/CNCc1cn(CCF)nn1 [FED6, (2E)-N-{4-[(3-chloro-4-fluorophenyl)amino]-3-cyano-7-ethoxyquinolin-6-yl}-4-({[1-(2-fluoroethyl)-1H-1,2,3-triazol-4-yl]methyl}amino)-but-2-enamide]
GI50 (3T3 cells; pre-treatment with 0.3 μM zosuquidar): 7.8 ± 0.7 µM | GI50 (3T3 cells; without zosuquidar): 10.7 ± 1 µM
